Literature values, collected in patent publication US20030105165A1, “Gap junctions and EDHF” (priority 2001, published 2003).

System: rabbit arteries
Conditions: endothelium-, gap junction- and cAMP-dependent; cited from earlier work

In the case of `CCCCC/C=C\C/C=C\C/C=C\CC1OC1CCCC(=O)O` (stereo not shown) [5,6-EET], the “Relaxation of rabbit arteries by EET regioisomers” value is listed as “evokes relaxations”.
